Test results taken from patent US11634451B2, “Method for the site-specific enzymatic labelling of nucleic acids in vitro by incorporation of unnatural nucleotides” (The Scripps Research Institute, priority 2013, dated 2023).
Marks after values point to notes of the source that are not given here.

Assays:
Taq polymerase = target: T1, Taq polymerase (Thermus aquaticus, UniProt P19821); test: PCR-based screen and amplification of DNA containing unnatural base pairs, Taq (Example 1); type: biochemical
T1 construct: purchased New England Biolabs (Ipswich, Mass.)
T1 sequence (P19821 whole entry): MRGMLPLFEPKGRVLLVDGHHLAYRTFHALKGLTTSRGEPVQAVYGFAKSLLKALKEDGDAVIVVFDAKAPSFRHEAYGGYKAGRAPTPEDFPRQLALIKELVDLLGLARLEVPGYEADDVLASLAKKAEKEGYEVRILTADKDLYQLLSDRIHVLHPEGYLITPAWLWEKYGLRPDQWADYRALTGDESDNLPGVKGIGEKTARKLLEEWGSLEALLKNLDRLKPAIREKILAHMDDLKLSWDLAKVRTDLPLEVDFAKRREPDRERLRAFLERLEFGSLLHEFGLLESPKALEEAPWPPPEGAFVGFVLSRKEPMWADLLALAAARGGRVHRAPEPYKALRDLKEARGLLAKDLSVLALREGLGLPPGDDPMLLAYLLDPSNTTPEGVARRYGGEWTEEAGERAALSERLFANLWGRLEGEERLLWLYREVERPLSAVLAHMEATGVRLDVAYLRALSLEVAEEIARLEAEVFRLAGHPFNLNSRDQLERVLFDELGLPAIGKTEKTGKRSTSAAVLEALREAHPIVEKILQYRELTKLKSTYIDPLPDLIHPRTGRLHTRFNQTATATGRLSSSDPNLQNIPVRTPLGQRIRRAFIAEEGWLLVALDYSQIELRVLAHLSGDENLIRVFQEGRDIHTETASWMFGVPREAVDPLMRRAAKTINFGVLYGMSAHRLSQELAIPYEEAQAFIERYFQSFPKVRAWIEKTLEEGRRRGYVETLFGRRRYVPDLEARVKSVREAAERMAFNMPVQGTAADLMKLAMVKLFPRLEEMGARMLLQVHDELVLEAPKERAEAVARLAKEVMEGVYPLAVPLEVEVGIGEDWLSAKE
Method: (§1) The triphosphates of the 6 group were prepared from the previously reported nucleosides (Kubelka, T., Slavetinska, L., Eigner, V. and Hocek, M. Synthesis of 2,6-disubstituted pyridin-3-yl C-2′-deoxyribonucleosides through chemoselective transformations of bromo-chloropyridine C-nucleosides. Org. Biomol. Chem., 11, 4702-4718) according to Ludwig, J. and Eckstein, F. Rapid and efficient synthesis of nucleoside 5′-0-(1-thiotriphosphates), 5′-triphosphates and 2′,3′-cyclophosphorothioates using 2-chloro-4H-1,3,2-benzodioxaphosphorin-4-one. J. Org. Chem., 54, 631-635. The purity of all other triphosphates was confirmed by MALDI-TOF and UV-VIS. Taq and OneTaq DNA polymerases were purchased from New England Biolabs (Ipswich, Mass.). A mixture of dNTPs was purchased from Fermentas (Glen Burnie, Md.). SYBR Green I Nucleic Acid Gel Stain (10,000×) was purchased from Life Technologies (Carlsbad, Calif.). The synthesis of the DNA templates, D8 (Malyshev, D. A., Dhami, K., Quach, H. T., Lavergne, T., Ordoukhanian, P., Torkamani, A. and Romesberg, F. E. Efficient and sequence-independent replication of DNA containing a third base pair establishes a functional six-letter genetic alphabet. Proc. Natl. Acad. Sci. USA, 109, 12005-12010), used for screening rounds 1-5, and D6 (Malyshev, D. A., Seo, Y. J., Ordoukhanian, P. and Romesberg, F. E. PCR with an expanded genetic alphabet. J. Am. Chem. Soc., 131, 14620-14621), used for all other amplifications, was described previously. Sanger sequencing was carried out as described previously (Malyshev, D. A., Dhami, K., Quach, H. T., Lavergne, T., Ordoukhanian, P., Torkamani, A. and Romesberg, F. E. Efficient and sequence-independent replication of DNA containing a third base pair establishes a functional six-letter genetic alphabet. Proc. Natl. Acad. Sci. USA, 109, 12005-12010). Raw Sanger sequencing traces were used to determine the percent retention of the unnatural base pairs, which was converted to fidelity per doubling, as described (Malyshev, D. A., Dhami, K., Quach, H. T., Lavergne, T., Ordoukhanian, P., Torkamani, A. and Romesberg, F. E. Efficient and sequence-independent replication of DNA containing a third base pair establishes a functional six-letter genetic alphabet. Proc. Natl. Acad. Sci. USA, 109, 12005-12010; Malyshev, D. A., Seo, Y. J., Ordoukhanian, P. and Romesberg, F. E. PCR with an expanded genetic alphabet. J. Am. Chem. Soc., 131, 14620-14621).
(§2) All PCR amplifications were performed in a CFX Connect Real-Time PCR Detection System (Bio-Rad), in a total volume of 25 μL using the following conditions: 1× OneTaq reaction buffer, 0.5× Sybr Green I, MgSO4 adjusted to 4.0 mM, 0.2 mM of each dNTP, 50 μM of each unnatural triphosphate, […] of Primer1 and Primer2 (See Table 2), and 0.02 U/μl of the DNA polymerase. Other conditions specific for each round of screening are described in Table 3. Amplified products were purified using DNA Clean and Concentrator-5 spin columns from Zymo Research (Irvine, Calif.). After purification, the PCR products were sequenced on a 3730 DNA Analyzer (Applied Biosystems) to determine the retention of the unnatural base pair as described below. Fidelity was characterized from unnatural base pair (UBP) retention as determined by sequencing with Primer1 on a 3730 DNA Analyzer (Applied Biosystems).
(§3) Specific PCR assay conditions. PCR with the most promising UBPs was carried out with the conditions as described in Table 3. PCR products were further purified on […] gels, followed by single band excision and subsequent clean up using the Zymo Research Zymoclean Gel DNA Recovery Kit. After elution with 20 μl of water, the DNA concentration was measured using fluorescent dye binding (Quant-iT dsDNA HS Assay kit, Life Technologies), and purified amplicons were sequenced in triplicate with both Primer1 and Primer2 to determine UBP retention and thus amplification fidelity. […]

OneTaq polymerase = test: PCR-based screen and amplification of DNA containing unnatural base pairs, OneTaq (Example 1); type: biochemical
Method: as §1, §2, §3

[1] = ^a 100 pg D8 template, 16 cycles, Taq polymerase, 68° C. for 60 s
[2] = OneTaq, 16 cycles, 1 min extension
[3] = ^b 10 pg D6 template, 24 cycles, OneTaq polymerase, 68° C. for 10 s
[4] = Taq, 10 s Extension, 52 cycles, D6 template
[5] = OneTaq, 1 min Extension, 52 cycles, D6 template

SMILES | Retention, % (Taq polymerase; [1]) | Amplification, ×10^12 (Taq polymerase; [4]) | Fidelity per Doubling, % (Taq polymerase; [4]) | Retention, % (Taq polymerase; [4]) | Amplification, ×10^12 (OneTaq polymerase; [5]) | Fidelity per Doubling, % (OneTaq polymerase; [5]) | Retention, % (OneTaq polymerase; [5]) | other results
COc1cc(N=[N+]=[N-])ccc1[C@H]1C[C@H](O)[C@@H](COP(=O)(O)OP(=O)(O)OP(=O)(O)O)O1.O=P(O)(O)OP(=O)(O)OP(=O)(O)OC[C@H]1O[C@@H](n2cc(F)c3ccsc3c2=S)C[C@@H]1O [FTPT3-ZMO] | 88^a % |  |  |  |  |  |  | 
Cc1ccc([C@H]2C[C@H](O)[C@@H](COP(=O)(O)OP(=O)(O)OP(=O)(O)O)O2)c(N)n1.O=P(O)(O)OP(=O)(O)OP(=O)(O)OC[C@H]1O[C@@H](n2ccc3ccsc3c2=S)C[C@@H]1O [TPT3-TOK586] |  |  |  |  |  |  |  | Fidelity, % (OneTaq polymerase; [2]): <85 ^b %; Retention, % (OneTaq polymerase; [2]): <50 ^b %; Amplification (OneTaq polymerase; OneTaq, 16 cycles, 1 min extension, -^a = no amplification was detected): 948; Retention, % (OneTaq polymerase; OneTaq, 16 cycles, 1 min extension, listed as dTPT3-dTOK586): poorly replicated
COc1cc(I)ccc1[C@H]1C[C@H](O)[C@@H](COP(=O)(O)OP(=O)(O)OP(=O)(O)O)O1.O=P(O)(O)OP(=O)(O)OP(=O)(O)OC[C@H]1O[C@@H](n2ccc3ncccc3c2=S)C[C@@H]1O [SNICS-IMO] |  |  |  |  |  |  |  | Retention, % (OneTaq polymerase; [3]): 88^b %
COc1cc(I)c(F)cc1[C@H]1C[C@H](O)[C@@H](COP(=O)(O)OP(=O)(O)OP(=O)(O)O)O1.O=P(O)(O)OP(=O)(O)OP(=O)(O)OC[C@H]1O[C@@H](n2cc(F)c3ccsc3c2=S)C[C@@H]1O [FTPT3-FIMO] |  | 4.8 ×10^12 | 99.60 ± 0.09% | 84 ± 3% | 8.2 ×10^12 | 99.65 ± 0.08% | 86 ± 3% | 
COc1cc2ccccc2cc1[C@H]1C[C@H](O)[C@@H](COP(=O)(O)OP(=O)(O)OP(=O)(O)O)O1.O=P(O)(O)OP(=O)(O)OP(=O)(O)OC[C@H]1O[C@@H](n2ccc3ncccc3c2=S)C[C@@H]1O [SNICS-NaM] | 90^a % |  |  |  |  |  |  | 
C#Cc1cc(OC)c([C@H]2C[C@H](O)[C@@H](COP(=O)(O)OP(=O)(O)OP(=O)(O)O)O2)cc1F.O=P(O)(O)OP(=O)(O)OP(=O)(O)OC[C@H]1O[C@@H](n2ccc3ncccc3c2=S)C[C@@H]1O [SNICS-FEMO] |  |  |  |  |  |  |  | Retention, % (OneTaq polymerase; [3]): 95^b %
COc1cc(I)ccc1[C@H]1C[C@H](O)[C@@H](COP(=O)(O)OP(=O)(O)OP(=O)(O)O)O1.O=P(O)(O)OP(=O)(O)OP(=O)(O)OC[C@H]1O[C@@H](n2cc(F)c3ccsc3c2=S)C[C@@H]1O [FTPT3-IMO] |  | 5.6 ×10^12 | 99.54 ± 0.13% | 82 ± 5% | 7.1 ×10^12 | 99.38 ± 0.05% | 76.8 ± 1.6% | 
COc1cc2ccccc2cc1[C@H]1C[C@H](O)[C@@H](COP(=O)(O)OP(=O)(O)OP(=O)(O)O)O1.O=P(O)(O)OP(=O)(O)OP(=O)(O)OC[C@H]1O[C@@H](n2ccc3ccccc3c2=S)C[C@@H]1O [SICS-NaM] | 99^a % |  |  |  |  |  |  | 
COc1cc(C#N)ccc1[C@H]1C[C@H](O)[C@@H](COP(=O)(O)OP(=O)(O)OP(=O)(O)O)O1.O=P(O)(O)OP(=O)(O)OP(=O)(O)OC[C@H]1O[C@@H](n2cc(F)c3ccsc3c2=S)C[C@@H]1O [FTPT3-CNMO] | 94^a % |  |  |  |  |  |  | 
C#Cc1cc(OC)c([C@H]2C[C@H](O)[C@@H](COP(=O)(O)OP(=O)(O)OP(=O)(O)O)O2)cc1F.O=P(O)(O)OP(=O)(O)OP(=O)(O)OC[C@H]1O[C@@H](n2ccc3ccsc3c2=S)C[C@@H]1O [TPT3-FEMO] |  | 5.0 ×10^12 | 99.44 ± 0.09% | 79 ± 3% | 10.4 ×10^12 | 99.55 ± 0.03% | 82.2 ± 1.0% | 
